Among the data in patent US20260347333A1, “NOVEL COMPOUND AND USE THEREOF” (PROTIER BIOTECH INC., priority 2023, published 2026) are remaining activity values, retold here.

SMILES strings stand for the structures.

The target in the test is T1, Cereblon (CRBN) protein (Homo sapiens, UniProt Q96SW2).
T1 construct: DNA label for qPCR detection (not a peptide tag); host or cells: HEK-293
T1 sequence (Q96SW2 whole entry): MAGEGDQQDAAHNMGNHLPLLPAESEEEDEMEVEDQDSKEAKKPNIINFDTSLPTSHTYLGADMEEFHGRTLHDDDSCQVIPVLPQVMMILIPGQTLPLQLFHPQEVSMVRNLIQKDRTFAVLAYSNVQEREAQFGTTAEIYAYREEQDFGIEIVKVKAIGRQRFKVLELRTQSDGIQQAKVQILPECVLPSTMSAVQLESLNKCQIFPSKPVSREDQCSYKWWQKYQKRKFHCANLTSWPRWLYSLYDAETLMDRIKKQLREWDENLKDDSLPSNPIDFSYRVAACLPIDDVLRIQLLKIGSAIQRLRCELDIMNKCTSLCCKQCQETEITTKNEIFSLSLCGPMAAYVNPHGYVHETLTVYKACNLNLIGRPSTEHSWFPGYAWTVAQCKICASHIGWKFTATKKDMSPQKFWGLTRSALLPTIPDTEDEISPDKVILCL
Kind of test: CRBN binding affinity, E3scan (% Ctrl). The settings on record: lower % Ctrl = stronger binding, DMSO 100% Ctrl. From the text: As used herein, the term “Cereblon (CRBN)” refers to a protein encoded by a human CRBN gene located at a cytogenetic location of 3p26.2 and a molecular location between base pairs 3,148,489 and 3,179,716 on chromosome 3 (UCSC Genome Browser on Human, December 2013 (GRCh38/hg38) assembly). CRBN is a substrate recognition component of a DCX (DDB1-CUL4-X-box) E3 protein ligase complex mediating ubiquitination and subsequent proteasomal degradation of a target protein. The DCX (DDB1-CUL4-X-box) E3 protein ligase complex may comprise at least CRBN, CUL4A, DDB1, and RBX1. The CRBN protein has two isoforms generated by alternative splicing: isoform 1 has 442 amino acids and a molecular weight of 50,546 Da; and isoform 2 has 441 amino acids and a molecular weight of 50,475 Da.
To confirm the binding affinity of the compounds synthesized in the Preparation Examples for a Cereblon (CRBN) protein, the following experiment was performed using E3scan™ from Eurofins.
Specifically, CRBN was produced using a HEK-293 cell line and labeled with DNA for qPCR detection. Streptavidin-coated magnetic beads were treated with a biotinylated small-molecule ligand at room temperature for 30 minutes to generate an affinity resin for E3scan analysis. The liganded beads were blocked with excess biotin and washed with a blocking buffer (SeaBlock (Pierce), 1% BSA, 0.05% Tween 20, 1 mM DTT) to remove unbound ligands and prevent non-specific binding. […] The test compound was prepared as a 100× stock in 100% DMSO and diluted directly into the assay solution. All reactions were performed in a polypropylene 384-well plate with a final reaction volume of 0.02 mL. […] Then, the beads were resuspended in an elution buffer (1×PBS, 0.05% Tween 20, 0.5 μM non-biotinylated affinity ligand) and incubated with shaking at room temperature for 30 minutes. The CRBN concentration in the eluate was measured by qPCR. […] A lower ‘% Ctrl’ indicates a stronger binding affinity.
`CNc1ccc2cc(C(=O)c3ccc4c(c3)CN(C3CCC(=O)NC3=O)C4=O)[nH]c2c1` (stereo not shown) [Compound 22, 3-(5-(6-(methylamino)-1H-indole-2-carbonyl)-1-oxoisoindolin-2-yl)piperidine-2,6-dione]: the remaining activity – broadly, the activity still measured, relative to the control – at 5 µM is 0 to 0.1%.
Molecule `O=C1CCC(N2Cc3cc(C(=O)C4CCN(Cc5ccccc5)CC4)ccc3C2=O)C(=O)N1` (stereo not shown) [Compound 11, 3-(5-(1-benzylpiperidine-4-carbonyl)-1-oxoisoindolin-2-yl)piperidine-2,6-dione] yielded a remaining activity at 5 µM of 0 to 0.1%.
The same measure for `O=C1CCC(N2C(=O)c3ccc(C(=O)c4cc5ccccc5[nH]4)cc3C2=O)C(=O)N1` (stereo not shown) [Compound 10, 2-(2,6-dioxopiperidin-3-yl)-5-(1H-indole-2-carbonyl)isoindoline-1,3-dione]: 1 to 10%; for `O=C1CCC(N2Cc3cc(C(=O)c4cc(-c5ccccc5)c[nH]4)ccc3C2=O)C(=O)N1` (stereo not shown) [Compound 27, 3-(1-oxo-5-(4-phenyl-1H-pyrrole-2-carbonyl)isoindolin-2-yl)piperidine-2,6-dione]: 0 to 0.1%; for `O=C1CCC(N2Cc3cc(C(=O)c4c[nH]c5ccc(-c6ccccc6)cc45)ccc3C2=O)C(=O)N1` (stereo not shown) [Compound 24, 3-(1-oxo-5-(5-phenyl-1H-indole-3-carbonyl)isoindolin-2-yl)piperidine-2,6-dione]: 10 to 35%.
Under `O=C1CCC(N2Cc3cc(C(=O)c4cc5ccccc5o4)ccc3C2=O)C(=O)N1` (stereo not shown) [Compound 34, 3-(5-(benzofuran-2-carbonyl)-1-oxoisoindolin-2-yl)piperidine-2,6-dione] stands 0 to 0.1%; under `O=C1CCC(N2Cc3cc(C(=O)c4ccc(Nc5ccccc5)cc4)ccc3C2=O)C(=O)N1` (stereo not shown) [Compound 15, 3-(1-oxo-5-(4-(phenylamino)benzoyl)isoindolin-2-yl)piperidine-2,6-dione], 0 to 0.1%.
The same measure for `O=C1CCC(N2Cc3cc(C(=O)c4cccc(-c5ccccc5)c4)ccc3C2=O)C(=O)N1` (stereo not shown) [Compound 26, 3-(5-([1,1′-biphenyl]-3-carbonyl)-1-oxoisoindolin-2-yl)piperidine-2,6-dione]: 0 to 0.1%.
`O=C1CCC(N2Cc3cc(C(=O)c4cn(-c5ccccc5)c5ccccc45)ccc3C2=O)C(=O)N1` (stereo not shown) [Compound 35, 3-(1-oxo-5-(1-phenyl-1H-indole-3-carbonyl)isoindolin-2-yl)piperidine-2,6-dione] gave a remaining activity at 5 µM of 0 to 0.1%.
The same measure for `O=C1CCC(N2Cc3cc(C(=O)N4Cc5ccccc5C4)ccc3C2=O)C(=O)N1` (stereo not shown) [Compound 36]: 0 to 0.1%; for `O=C1CCC(N2Cc3cc(C(=O)N4CCCC4)ccc3C2=O)C(=O)N1` (stereo not shown) [Compound 7, 3-(1-oxo-5-(pyrrolidine-1-carbonyl)isoindolin-2-yl)piperidine-2,6-dione]: 0 to 0.1%.
The same measure for `O=C1CCC(N2Cc3cc(C(=O)c4ccc5cn[nH]c5c4)ccc3C2=O)C(=O)N1` (stereo not shown) [Compound 21, 3-(5-(1H-indazole-6-carbonyl)-1-oxoisoindolin-2-yl)piperidine-2,6-dione]: 0 to 0.1%; for `O=C1CCC(N2Cc3cc(C(=O)c4ccccc4)ccc3C2=O)C(=O)N1` (stereo not shown) [Compound 1, 3-(5-benzoyl-1-oxoisoindolin-2-yl)piperidine-2,6-dione]: 1 to 10%; for `O=C1CCC(N2Cc3nc(C(=O)c4ccccc4)ccc3C2=O)C(=O)N1` (stereo not shown) [Compound 5, 3-(2-benzoyl-5-oxo-5,7-dihydro-6H-pyrrolo[3,4-b]pyridin-6-yl)piperidine-2,6-dione]: 1 to 10%.
The same measure for `O=C1CCC(N2Cc3cc(C(=O)c4cc5ccccc5[nH]4)ccc3C2=O)C(=O)N1` (stereo not shown) [Compound 3, 3-(5-(1H-indole-2-carbonyl)-1-oxoisoindolin-2-yl)piperidine-2,6-dione]: 0 to 0.1%; for `O=C1CCC(N2Cc3cc(C(=O)c4cc(-c5ccccc5)cs4)ccc3C2=O)C(=O)N1` (stereo not shown) [Compound 30, 3-(1-oxo-5-(4-phenylthiophene-2-carbonyl)isoindolin-2-yl)piperidine-2,6-dione]: 0 to 0.1%; for `O=C1CCC(N2Cc3cc(C(=O)c4cccc(Nc5ccccc5)c4)ccc3C2=O)C(=O)N1` (stereo not shown) [Compound 16, 3-(1-oxo-5-(3-(phenylamino)benzoyl)isoindolin-2-yl)piperidine-2,6-dione]: 0 to 0.1%.
`O=C1CCC(N2Cc3cc(C(=O)c4ccc(-c5ccccc5)[nH]4)ccc3C2=O)C(=O)N1` (stereo not shown) [Compound 28, 3-(1-oxo-5-(5-phenyl-1H-pyrrole-2-carbonyl)isoindolin-2-yl)piperidine-2,6-dione] yielded a remaining activity at 5 µM of 1 to 10%.
Under `O=C1CCC(N2Cc3cc(C(=O)N4Cc5cccc6cccc4c56)ccc3C2=O)C(=O)N1` (stereo not shown) [Compound 31, 3-(5-(1,2-dihydrobenzo[cd]indole-1-carbonyl)-1-oxoisoindolin-2-yl)piperidine-2,6-dione] stands 0 to 0.1%.
The same measure for `O=C1CCC(N2Cc3cc(C(=O)c4coc5ccccc45)ccc3C2=O)C(=O)N1` (stereo not shown) [Compound 37, 3-(5-(benzofuran-3-carbonyl)-1-oxoisoindolin-2-yl)piperidine-2,6-dione]: 1 to 10%; for `O=C1CCC(N2Cc3cc(C(=O)c4cn(-c5ccccc5)c5ccc(-c6ccccc6)cc45)ccc3C2=O)C(=O)N1` (stereo not shown) [Compound 25, 3-(5-(1,5-diphenyl-1H-indole-3-carbonyl)-1-oxoisoindolin-2-yl)piperidine-2,6-dione]: 10 to 35%.
`O=C1CCC(N2Cc3cc(C(=O)c4n[nH]c5ccccc45)ccc3C2=O)C(=O)N1` (stereo not shown) [Compound 17, 3-(5-(1H-indazole-3-carbonyl)-1-oxoisoindolin-2-yl)piperidine-2,6-dione] showed a remaining activity at 5 µM of 0 to 0.1%.
`O=C1CCC(N2Cc3cc(C(=O)c4ccccn4)ccc3C2=O)C(=O)N1` (stereo not shown) [Compound 12, 3-(1-oxo-5-picolinoylisoindolin-2-yl)piperidine-2,6-dione] showed a remaining activity at 5 µM of 0 to 0.1%.
The same measure for `O=C1CCC(N2Cc3cc(C(=O)n4ncc5ccccc54)ccc3C2=O)C(=O)N1` (stereo not shown) [Compound 6, 3-(5-(1H-indazole-1-carbonyl)-1-oxoisoindolin-2-yl)piperidine-2,6-dione]: 0 to 0.1%; for `O=C1CCC(N2Cc3cc(C(=O)c4c[nH]c5ccccc45)ccc3C2=O)C(=O)N1` (stereo not shown) [Compound 4, 3-(5-(1H-indole-3-carbonyl)-1-oxoisoindolin-2-yl)piperidine-2,6-dione]: 0.1 to 1%.
